The source of these data is patent publication US20170296550A1, “ARYL SULTAM DERIVATIVES AS RORc MODULATORS” (Genentech, Inc., priority 2013, published 2017).

The assay concerns the target T1, RORc (Homo sapiens, UniProt P51449).
T1 construct: host or cells: E. coli
T1 sequence (P51449 269-508 limits assumed): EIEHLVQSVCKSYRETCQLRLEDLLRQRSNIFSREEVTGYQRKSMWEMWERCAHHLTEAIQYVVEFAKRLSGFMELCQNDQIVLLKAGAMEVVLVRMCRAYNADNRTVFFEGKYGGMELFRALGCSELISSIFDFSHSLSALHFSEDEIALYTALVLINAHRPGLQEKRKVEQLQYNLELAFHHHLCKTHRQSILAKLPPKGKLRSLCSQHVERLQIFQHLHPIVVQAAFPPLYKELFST
The experiment in a line: In Vitro RORc Ligand Binding Assay (25-[3H]hydroxycholesterol radioligand, filter plate). Conditions: RORc ligand binding domain 0.6 ug/mL; 6 nM 25-[3H]hydroxycholesterol; 3 h at 25° C. How it is done:
Example 68 In Vitro RORc Ligand Binding Assay
This assay was used to determine a compound's potency in inhibiting activity of RORc by determining, Kiapp, IC50, or percent inhibition values.
On day of the assay, 100 uL of 0.05% CHAPS (in deionized H2O) was added to all wells of the GFB Unifilter plate and allowed soak for 1 h. A wash buffer of 50 mM HEPES (pH 7.4), 150 mM NaCl, and 5 mM MgCl2 was prepared to wash the filter plate. To prepare an assay buffer, BSA was added to the wash buffer to reach 0.01% and DTT was added to reach 1 mM.
For IC50 mode, 10 mM compound stocks were serially diluted in DMSO with DMSO to give 20× required final concentration in DMSO (15 uL compound+30 uL DMSO). The 20× compound stocks were diluted in DMSO with Assay Buffer 4-fold to reach 5× the final test concentration in 25% DMSO (10 uL compound+30 uL Assay Buffer). Solutions were mixed by aspiration several times with a pipette set on 50 uL volume. For the assay, 10 uL of 5× compound stock solutions in 25% DMSO were added to the assay plate in duplicate.
For two point screening, 10 mM stock compound solutions were diluted in DMSO to obtain 200 uM (20× the high test concentration) and then diluted 10-fold further to reach 20 uM (20× the low test concentration). The 20× stocks were diluted 4-fold with Assay Buffer (10 uL compound+30 uL Assay Buffer) to reach 5× the test concentrations (50 uM and 5 uM) and 10 uL were added to two assay plates for the duplicate wells. With each concentration tested on 2 plates, each set of 80 compounds used 4 assay plates (1 uM and 10 uM, with n=2).
25-hydroxycholesterol (1 uM) was used to determine the level of NSB signal is prepared in DMSO as for compounds above, then diluted in Assay Buffer to give a final concentration of 5 uM. For 25-hydroxycholesterol in 25% DMSO/75% Assay Buffer; 10 uL per well was used for NSB samples. Wells for Total Binding and No Receptor sample determination contained 10 uL of 25% DMSO/75% Assay Buffer per well.
Radioligand (25-[^3H]hydroxycholesterol) Preparation
25-[^3H]hydroxycholesterol was dilute in Assay Buffer to obtain 15 nM and vortex to mix. Add 20 uL to all wells to reach 6 nM final in the assay.
Stock receptor solution was diluted in assay buffer to obtain 1.5 ug/mL in Assay Buffer. 20 uL was added to all wells. For No R samples, 20 uL Assay Buffer was substituted for receptor solution.
Assay plates were 96-well polypropylene V-bottom plates. 10 uL of 5× compound in 25% DMSO/75% Assay Buffer was added to Test wells. 10 uL of 25% DMSO/75% Assay Buffer was added to Total Binding or No Receptor wells. 10 uL of 5 uM 25-hydroxycholesterol in 25% DMSO/75% Assay Buffer was added to NSB wells. 20 uL of 15 nM 25-[^3H]hydroxycholesterol prepared in Assay Buffer was added to all wells. 20 uL of 1.5 ug/mL RORc receptor was added to wells (or […] Assay Buffer to No R wells). Following addition to the wells, the plates were incubated 3 h at 25° C.
Using a Packard Filtermate Harvester, the filter plate were washed 4 times following transfer of the incubated samples. Plates were dry-filtered completely (2 h at 50° C. or overnight at room temperature). 50 uL Microscint 0 was added to all wells and read on Topcount protocol Inverted.
Final concentrations were as follows: 50 mM HEPES buffer (pH 7.4); 150 mM NaCl; 1 mM DTT; 5 mM MgCl2; 0.01% BSA; 5% DMSO; 0.6 ug/mL RORc receptor; 6 nM 25-[^3H]hydroxycholesterol. For NSB wells, 1 uM 25-hydroxycholesterol was also present.
For `Cc1cc(COc2ccc(CN3[C@@H](C)CCC(c4ccccc4)S3(=O)=O)cc2)n(C)n1` (stereo partly drawn) [Example 55, (3S)-2-[4-(2,5-Dimethyl-2H-pyrazol-3-ylmethoxy)-benzyl]-3-methyl-6-phenyl-[1,2]thiazinane 1,1-dioxide], the half-inhibitory concentration (IC50) (commonly the concentration needed to halve the response being measured) turned out to be 0.387 µM. In other words, the sub-micromolar range.

As for `C[C@H]1CCC(c2ccccc2)S(=O)(=O)N1Cc1ccc(-c2ccc(S(N)(=O)=O)cc2)cc1F` (single isomer, unassigned) [Example 22], the IC50 amounted to 0.087 µM.

`Cc1cccnc1COc1ccc(CN2[C@@H](C)CCC(c3ccccc3)S2(=O)=O)cc1` (stereo partly drawn) [Example 46, (3S)-3-Methyl-2-[4-(3-methyl-pyridin-2-ylmethoxy)-benzyl]-6-phenyl-[1,2]thiazinane 1,1-dioxide] returned a 50% inhibitory concentration (IC50) of 0.153 µM.

In the case of `C[C@H]1CCC(c2ccccc2)S(=O)(=O)N1Cc1ccc(-c2ccc(S(C)(=O)=O)cc2)cc1F` (stereo partly drawn) [Example 31, (3S)-2-(3-Fluoro-4′-methanesulfonyl-biphenyl-4-ylmethyl)-3-methyl-6-phenyl-[1,2]thiazinane 1,1-dioxide], the IC50 came out at 0.028 µM.

Consider `Cc1ncsc1CCOc1ccc(CN2[C@@H](C)CCC(c3ccccc3)S2(=O)=O)cc1` (single isomer, unassigned) [Example 61], for which the half-inhibitory concentration (IC50) came to 0.151 µM.

Molecule `C[C@H]1CCC(c2ccccc2)S(=O)(=O)N1Cc1ccc(-c2cnc(NS(C)(=O)=O)nc2)cc1F` (single isomer, unassigned) [Example 43] yielded a half-maximal inhibitory concentration (IC50) of 0.275 µM.

Molecule `C[C@H]1CCC(c2ccccc2)S(=O)(=O)N1Cc1ccc(-c2n[nH]c(S(C)(=O)=O)n2)cc1F` (single isomer, unassigned) [Example 42] yielded an IC50 of 2.17 µM.

Turning to `CC(=O)Nc1ccc(-c2ccc(CN3[C@@H](C)CCC(c4ccccc4)S3(=O)=O)c(F)c2)cn1` (stereo partly drawn) [Example 26, N-{5-[3-Fluoro-4-((3S)-3-methyl-1,1-dioxo-6-phenyl-[1,2]thiazinan-2-ylmethyl)-phcnyl]-pyridin-2-yl}-acetamide], the IC50 amounted to 1.91 µM.

The molecule `Cc1ccnc(COc2ccc(CN3[C@@H](C)CCC(c4ccccc4)S3(=O)=O)cc2)n1` (single isomer, unassigned) [Example 44] came in with an IC50 of 0.963 µM.

As for `Cc1oncc1COc1ccc(CN2[C@@H](C)CCC(c3ccccc3)S2(=O)=O)cc1` (stereo partly drawn) [Example 53, (3S)-3-Methyl-2-[4-(5-methyl-isoxazol-4-ylmethoxy)-benzyl]-6-phenyl-[1,2]thiazinane 1,1-dioxide], the IC50 is 0.208 µM.

On to `C[C@H]1CCC(c2ccccc2)S(=O)(=O)N1Cc1ccc(-c2ccc(NS(C)(=O)=O)cc2)cc1F` (stereo partly drawn) [Example 33, N-[3′-Fluoro-4′-((3S)-3-methyl-1,1-dioxo-6-phenyl-[1,2]thiazinan-2-ylmethyl)-biphenyl-4-yl]-methanesulfonamide], for which the IC50 turned out to be 0.044 µM. This IC50 is about 4.7-fold lower than that of the molecule before.

In the case of `C[C@H]1CCC(c2ccccc2)S(=O)(=O)N1Cc1ccc(C(=O)Nc2nc[nH]c2C#N)cc1` (single isomer, unassigned) [Example 10], the IC50 was found to be 2.9 µM.

On to `C[C@H]1CCC(c2ccccc2)S(=O)(=O)N1Cc1ccc(-c2csc(S(C)(=O)=O)n2)cc1F` (single isomer, unassigned) [Example 37], for which the IC50 came to 0.273 µM.

In the case of `C[C@H]1CCC(c2ccccc2)S(=O)(=O)N1Cc1ccc(OCc2cccnc2)cc1` (single isomer, unassigned) [Example 58], the IC50 stood at 0.106 µM.

In turn, `C[C@H]1CCC(c2ccccc2)S(=O)(=O)N1Cc1ccc(C(=O)NCc2cn[nH]c2)cc1` (single isomer, unassigned) [Example 7] registered a 50% inhibitory concentration (IC50) of 0.502 µM.

As for `C[C@H]1CCC(c2ccccc2)S(=O)(=O)N1Cc1ccc(-c2ccccc2)cc1F` (stereo partly drawn) [Example 32, (3S)-2-(3-Fluoro-biphenyl-4-ylmethyl)-3-methyl-6-phenyl-[1,2]thiazinane 1,1-dioxide], the IC50 was 0.161 µM.

The molecule `Cc1cc(NC(=O)c2ccc(CN3[C@@H](C)CCC(c4ccccc4)S3(=O)=O)cc2)n(C)n1` (single isomer, unassigned) [Example 9] returned an IC50 of 0.969 µM. Compared with the last molecule, the IC50 is about 6-fold higher.

Molecule `C[C@H]1CCC(c2ccccc2)S(=O)(=O)N1Cc1ccc(-c2ccc(S(C)(=O)=O)nn2)cc1F` (single isomer, unassigned) [Example 41] gave an IC50 of 0.289 µM. This IC50 is about 3.4-fold lower than that of the molecule before.

In turn, `Cc1nn(C)cc1NC(=O)c1ccc(CN2[C@@H](C)CCC(c3ccccc3)S2(=O)=O)cc1` (stereo partly drawn) [Example 20, N-(1,3-Dimethyl-1H-pyrazol-4-yl)-4-((3S)-3-methyl-1,1-dioxo-6-phenyl-[1,2]thiazinan-2-ylmethyl)-benzamide] showed an IC50 of 2.11 µM.

In turn, `C[C@H]1CCC(c2ccccc2)S(=O)(=O)N1Cc1ccc(C(=O)NCc2ccnn2C)cc1` (stereo partly drawn) [Example 17, 4-((3S)-3-Methyl-1,1-dioxo-6-phenyl-[1,2]thiazinan-2-ylmethyl)-N-(2-methyl-2H-pyrazol-3-ylmethyl)-benzamide] registered an IC50 of 1.98 µM.

The molecule `C[C@H]1CCC(c2ccccc2)S(=O)(=O)N1Cc1ccc(-c2cccc(S(C)(=O)=O)c2)cc1F` (stereo partly drawn) [Example 23, (3S)-2-(3-Fluoro-3′-methanesulfonyl-biphenyl-4-ylmethyl)-3-methyl-6-phenyl-[1,2]thiazinane 1,1-dioxide] returned an IC50 of 0.212 µM.

Molecule `Cc1cc(NC(=O)c2ccc(CN3[C@@H](C)CCC(c4ccccc4)S3(=O)=O)cc2)no1` (stereo partly drawn) [Example 12, 4-((3S)-3-Methyl-1,1-dioxo-6-phenyl-[1,2]thiazinan-2-ylmethyl)-N-(5-methyl-isoxazol-3-yl)-benzamide] showed a concentration for half-maximal inhibition (IC50) of 0.404 µM.

`Cc1noc(C)c1COc1ccc(CN2[C@@H](C)CCC(c3ccccc3)S2(=O)=O)cc1` (stereo partly drawn) [Example 60, (3S)-2-[4-(3,5-Dimethyl-isoxazol-4-ylmethoxy)-benzyl]-3-methyl-6-phenyl-[1,2]thiazinane 1,1-dioxide] had an IC50 of 0.151 µM.

Regarding `Cc1cc(NC(=O)c2ccc(CN3[C@@H](C)CCC(c4ccccc4)S3(=O)=O)cc2)n[nH]1` (stereo partly drawn) [Example 11, 4-((3S)-3-Methyl-1,1-dioxo-6-phenyl-[1,2]thiazinan-2-ylmethyl)-N-(5-methyl-1H-pyrazol-3-yl)-benzamidc], the IC50 worked out at 1.22 µM.

`C[C@H]1CCC(c2ccccc2)S(=O)(=O)N1Cc1ccc(C(=O)NCc2ccno2)cc1` (stereo partly drawn) [Example 19, N-Isoxazol-5-ylmethyl-4-((3S)-3-methyl-1,1-dioxo-6-phenyl-[1,2]thiazinan-2-ylmethyl)-benzamide] displayed an IC50 of 0.985 µM.

On to `C[C@H]1CCC(c2ccccc2)S(=O)(=O)N1Cc1ccc(-c2ccc(C(N)=O)cc2)cc1F` (stereo partly drawn) [Example 28, 3′-Fluoro-4′-((3S)-3-methyl-1,1-dioxo-6-phenyl-[1,2]thiazinan-2-ylmethyl)-biphenyl-4-carboxylic acid amide], for which the IC50 was 0.037 µM. Compared with the last molecule, the IC50 is about 27-fold lower.

Take `CC(Oc1ccc(CN2[C@@H](C)CCC(c3ccccc3)S2(=O)=O)cc1)c1cnn(C)c1` (single isomer, unassigned) [Example 45]: the IC50 turned out to be 0.693 µM.

`C[C@H]1CCC(c2ccccc2)S(=O)(=O)N1Cc1ccc(C(=O)Nc2ncnn2C)cc1` (single isomer, unassigned) [Example 21] yielded an IC50 of 3.28 µM. Against the preceding molecule, the IC50 is about 4.7-fold higher.

With `C[C@H]1CCC(c2ccccc2)S(=O)(=O)N1Cc1ccc(-c2cnn(C)c2)cc1F` (stereo partly drawn) [Example 29, (3S)-2-[2-Fluoro-4-(1-methyl-1H-pyrazol-4-yl)-benzyl]-3-methyl-6-phenyl-[1,2]thiazinane 1,1-dioxide], the concentration for half-maximal inhibition (IC50) turned out to be 0.727 µM.
